Assay results as given in patent US20230085307A1, “PYRIDAZINONE COMPOUND AND HERBICIDE” (NISSAN CHEMICAL CORPORATION, priority 2019, published 2023).

These compounds were tested on rice flat sedge (assay: Test Example 3: herbicidal effect by foliage application, Wagner pot (Table 18, symbol E)). Details: amount of applied herbicide 320 g/ha.
Format: in vivo, rice flat sedge (Cyperus iria)
In short: (§1)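 Plants were sown in alluvial soil held under 0.1–0.5 cm standing water and grown 14 days in a greenhouse at 25–30 °C. An emulsifiable formulation, water-diluted to the set dose, was then sprayed onto the foliage, and effects were scored three weeks later using previously defined criteria.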

| SMILES | herbicidal effect on E: rice flat sedge |
| --- | --- |
| COc1cc(F)ccc1-c1sc2cc(F)ccc2c1-c1c(O)c(C)nn(C)c1=O [3-009] | 5 (Herbicidal rate of 90% or more (almost completely withered)) |
| Cc1nn(C)c(=O)c(-c2c(-c3ccc4c(c3)OCCO4)sc3cc(F)ccc23)c1O [3-013] | 5 (Herbicidal rate of 90% or more (almost completely withered)) |
| CCOc1cc(F)ccc1-c1sc2cc(F)ccc2c1-c1c(O)c(C)nn(C)c1=O [3-011] | 5 (Herbicidal rate of 90% or more (almost completely withered)) |

What follows are compounds tested on barnyard grass (assay: Test Example 4: herbicidal effect by soil treatment (Table 19, symbol H)). Details: amount of applied herbicide 320 g/ha.
Format: in vivo, barnyard grass (Echinochloa crus-galli)
In short: (§2)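 Scoring uses the grading scale of an earlier test, three weeks post-application. Treatment consists of spraying a diluted emulsion formulation across the surface of sterilized diluvial soil in which seeds are buried near 1.5 cm deep; boxes are kept in a greenhouse between 25° C. and 30° C.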

| SMILES | herbicidal effect, H: barnyard grass |
| --- | --- |
| COc1cc(F)ccc1-c1sc2cc(F)ccc2c1-c1c(O)c(C)nn(C)c1=O [3-009] | 5 (Herbicidal rate of 90% or more (almost completely withered)) |
| Cc1nn(C)c(=O)c(-c2c(-c3ccc4c(c3)OCCO4)sc3cc(F)ccc23)c1O [3-013] | 5 (Herbicidal rate of 90% or more (almost completely withered)) |
| CCOc1cc(F)ccc1-c1sc2cc(F)ccc2c1-c1c(O)c(C)nn(C)c1=O [3-011] | 5 (Herbicidal rate of 90% or more (almost completely withered)) |

What follows are compounds tested on chickweed (assay: Test Example 4: herbicidal effect by soil treatment (Table 19, symbol P)). Details: amount of applied herbicide 320 g/ha.
Format: in vivo, common chickweed (Stellaria media)
In short: as §2

| SMILES | herbicidal effect, P: chickweed |
| --- | --- |
| COc1cc(F)ccc1-c1sc2cc(F)ccc2c1-c1c(O)c(C)nn(C)c1=O [3-009] | 4 (Herbicidal rate of 70% or more and less than 90%) |
| Cc1nn(C)c(=O)c(-c2c(-c3ccc4c(c3)OCCO4)sc3cc(F)ccc23)c1O [3-013] | 4 (Herbicidal rate of 70% or more and less than 90%) |
| CCOc1cc(F)ccc1-c1sc2cc(F)ccc2c1-c1c(O)c(C)nn(C)c1=O [3-011] | 4 (Herbicidal rate of 70% or more and less than 90%) |

What follows are compounds tested on persian speedwell (assay: Test Example 5: herbicidal effect by foliage application, plastic box (Table 20, symbol R)). Details: foliage application, 320 g/ha, three weeks after application.
Format: in vivo, Persian speedwell (Veronica persica)
In short: (§3)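 Post-emergence foliar test in sterilized diluvial soil. Compound applied as water-diluted emulsion at a predetermined rate to 14-day-old plants; evaluation at three weeks.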

| SMILES | R: persian speedwell, herbicidal effect grade |
| --- | --- |
| COc1cc(F)ccc1-c1sc2cc(F)ccc2c1-c1c(O)c(C)nn(C)c1=O [3-009] | 5 (Herbicidal rate of 90% or more (almost completely withered)) |
| Cc1nn(C)c(=O)c(-c2c(-c3ccc4c(c3)OCCO4)sc3cc(F)ccc23)c1O [3-013] | 5 (Herbicidal rate of 90% or more (almost completely withered)) |
| CCOc1cc(F)ccc1-c1sc2cc(F)ccc2c1-c1c(O)c(C)nn(C)c1=O [3-011] | 5 (Herbicidal rate of 90% or more (almost completely withered)) |

The compounds below were run on late watergrass (assay: Test Example 2: herbicidal activity, application during weed generation under submerged conditions (Table 17, symbol A)). Details: AAH 320 g/ha; application during weed generation, submerged conditions.
Format: in vivo, late watergrass (Echinochloa oryzicola)
In short: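 Alluvial soil in Wagner pots was flooded to 4 cm depth and sown with the three weeds together; pots were kept in a greenhouse at 25° C. to 30° C. At the one to two leaf stage, an emulsion formulation diluted in water to a set rate went onto the water surface; scored three weeks later.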

| SMILES | herbicidal effect rating, A: late watergrass |
| --- | --- |
| COc1cc(F)ccc1-c1sc2cc(F)ccc2c1-c1c(O)c(C)nn(C)c1=O [3-009] | 0 (Herbicidal rate of 5% or less (almost no effect)) |
| Cc1nn(C)c(=O)c(-c2c(-c3ccc4c(c3)OCCO4)sc3cc(F)ccc23)c1O [3-013] | 0 (Herbicidal rate of 5% or less (almost no effect)) |
| CCOc1cc(F)ccc1-c1sc2cc(F)ccc2c1-c1c(O)c(C)nn(C)c1=O [3-011] | 3 (Herbicidal rate of 40% or more and less than 70%) |

Each compound was assayed on windgrass (assay: Test Example 4: herbicidal effect by soil treatment (Table 19, symbol L)). Details: amount of applied herbicide 320 g/ha.
Format: in vivo, windgrass (Apera spica-venti)
In short: as §2

| SMILES | herbicidal effect, L: windgrass |
| --- | --- |
| COc1cc(F)ccc1-c1sc2cc(F)ccc2c1-c1c(O)c(C)nn(C)c1=O [3-009] | 5 (Herbicidal rate of 90% or more (almost completely withered)) |
| Cc1nn(C)c(=O)c(-c2c(-c3ccc4c(c3)OCCO4)sc3cc(F)ccc23)c1O [3-013] | 0 (Herbicidal rate of 5% or less (almost no effect)) |
| CCOc1cc(F)ccc1-c1sc2cc(F)ccc2c1-c1c(O)c(C)nn(C)c1=O [3-011] | 5 (Herbicidal rate of 90% or more (almost completely withered)) |

Each compound was assayed on southern crabgrass (assay: Test Example 4: herbicidal effect by soil treatment (Table 19, symbol F)). Details: amount of applied herbicide 320 g/ha.
Format: in vivo, southern crabgrass (Digitaria ciliaris)
In short: as §2

| SMILES | herbicidal effect, F: southern crabgrass |
| --- | --- |
| COc1cc(F)ccc1-c1sc2cc(F)ccc2c1-c1c(O)c(C)nn(C)c1=O [3-009] | 5 (Herbicidal rate of 90% or more (almost completely withered)) |
| Cc1nn(C)c(=O)c(-c2c(-c3ccc4c(c3)OCCO4)sc3cc(F)ccc23)c1O [3-013] | 4 (Herbicidal rate of 70% or more and less than 90%) |
| CCOc1cc(F)ccc1-c1sc2cc(F)ccc2c1-c1c(O)c(C)nn(C)c1=O [3-011] | 5 (Herbicidal rate of 90% or more (almost completely withered)) |

Each compound was assayed on oval-leafed pondweed (assay: Test Example 1: herbicidal activity, application before weed generation under submerged conditions (Table 16, symbol C)). Details: amount of applied herbicide 320 g/ha.
Format: in vivo, oval-leafed pondweed (Monochoria vaginalis)
In short: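 Emulsion formulation, water-diluted to set dose, was put onto the flooded surface (4 cm depth, alluvial soil) the same day weeds were sown and 2.5-leaf rice transplanted. After 3 weeks at 25-30 °C under glass, each species was rated 0 (≤5% kill) to 5 (≥90% kill).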

| SMILES | Herbicidal effect, C: oval-leafed pondweed |
| --- | --- |
| COc1cc(F)ccc1-c1sc2cc(F)ccc2c1-c1c(O)c(C)nn(C)c1=O [3-009] | 1 (Herbicidal rate of 5% or more and less than 20%) |
| Cc1nn(C)c(=O)c(-c2c(-c3ccc4c(c3)OCCO4)sc3cc(F)ccc23)c1O [3-013] | 2 (Herbicidal rate of 20% or more and less than 40%) |
| CCOc1cc(F)ccc1-c1sc2cc(F)ccc2c1-c1c(O)c(C)nn(C)c1=O [3-011] | 3 (Herbicidal rate of 40% or more and less than 70%) |

What follows are compounds tested on redroot pigweed (assay: Test Example 5: herbicidal effect by foliage application, plastic box (Table 20, symbol N)). Details: foliage application, 320 g/ha, three weeks after application.
Format: in vivo, redroot pigweed (Amaranthus retroflexus)
In short: as §3

| SMILES | N: redroot pigweed, herbicidal effect grade |
| --- | --- |
| COc1cc(F)ccc1-c1sc2cc(F)ccc2c1-c1c(O)c(C)nn(C)c1=O [3-009] | 5 (Herbicidal rate of 90% or more (almost completely withered)) |
| Cc1nn(C)c(=O)c(-c2c(-c3ccc4c(c3)OCCO4)sc3cc(F)ccc23)c1O [3-013] | 5 (Herbicidal rate of 90% or more (almost completely withered)) |
| CCOc1cc(F)ccc1-c1sc2cc(F)ccc2c1-c1c(O)c(C)nn(C)c1=O [3-011] | 5 (Herbicidal rate of 90% or more (almost completely withered)) |

These compounds were tested on lambsquarters (assay: Test Example 5: herbicidal effect by foliage application, plastic box (Table 20, symbol O)). Details: foliage application, 320 g/ha, three weeks after application.
Format: in vivo, lambsquarters (Chenopodium album)
In short: as §3

| SMILES | O: lambsquarters, herbicidal effect grade |
| --- | --- |
| COc1cc(F)ccc1-c1sc2cc(F)ccc2c1-c1c(O)c(C)nn(C)c1=O [3-009] | 5 (Herbicidal rate of 90% or more (almost completely withered)) |
| Cc1nn(C)c(=O)c(-c2c(-c3ccc4c(c3)OCCO4)sc3cc(F)ccc23)c1O [3-013] | 5 (Herbicidal rate of 90% or more (almost completely withered)) |
| CCOc1cc(F)ccc1-c1sc2cc(F)ccc2c1-c1c(O)c(C)nn(C)c1=O [3-011] | 5 (Herbicidal rate of 90% or more (almost completely withered)) |

The compounds below were run on barnyard grass (assay: Test Example 3: herbicidal effect by foliage application, Wagner pot (Table 18, symbol H)). Details: amount of applied herbicide 320 g/ha.
Format: in vivo, barnyard grass (Echinochloa crus-galli)
In short: as §1

| SMILES | herbicidal effect on H: barnyard grass |
| --- | --- |
| COc1cc(F)ccc1-c1sc2cc(F)ccc2c1-c1c(O)c(C)nn(C)c1=O [3-009] | 5 (Herbicidal rate of 90% or more (almost completely withered)) |
| Cc1nn(C)c(=O)c(-c2c(-c3ccc4c(c3)OCCO4)sc3cc(F)ccc23)c1O [3-013] | 4 (Herbicidal rate of 70% or more and less than 90%) |
| CCOc1cc(F)ccc1-c1sc2cc(F)ccc2c1-c1c(O)c(C)nn(C)c1=O [3-011] | 5 (Herbicidal rate of 90% or more (almost completely withered)) |

Each compound was assayed on false cleavers (assay: Test Example 4: herbicidal effect by soil treatment (Table 19, symbol Q)). Details: amount of applied herbicide 320 g/ha.
Format: in vivo, false cleavers (Galium spurium)
In short: as §2

| SMILES | herbicidal effect, Q: false cleavers |
| --- | --- |
| COc1cc(F)ccc1-c1sc2cc(F)ccc2c1-c1c(O)c(C)nn(C)c1=O [3-009] | 5 (Herbicidal rate of 90% or more (almost completely withered)) |
| Cc1nn(C)c(=O)c(-c2c(-c3ccc4c(c3)OCCO4)sc3cc(F)ccc23)c1O [3-013] | 4 (Herbicidal rate of 70% or more and less than 90%) |
| CCOc1cc(F)ccc1-c1sc2cc(F)ccc2c1-c1c(O)c(C)nn(C)c1=O [3-011] | 5 (Herbicidal rate of 90% or more (almost completely withered)) |

Each compound was assayed on Chinese sprangletop (assay: Test Example 3: herbicidal effect by foliage application, Wagner pot (Table 18, symbol D)). Details: amount of applied herbicide 320 g/ha.
Format: in vivo, chinese sprangletop (Leptochloa chinensis)
In short: as §1

| SMILES | herbicidal effect on D: Chinese sprangletop |
| --- | --- |
| COc1cc(F)ccc1-c1sc2cc(F)ccc2c1-c1c(O)c(C)nn(C)c1=O [3-009] | 5 (Herbicidal rate of 90% or more (almost completely withered)) |
| Cc1nn(C)c(=O)c(-c2c(-c3ccc4c(c3)OCCO4)sc3cc(F)ccc23)c1O [3-013] | 4 (Herbicidal rate of 70% or more and less than 90%) |
| CCOc1cc(F)ccc1-c1sc2cc(F)ccc2c1-c1c(O)c(C)nn(C)c1=O [3-011] | 4 (Herbicidal rate of 70% or more and less than 90%) |

What follows are compounds tested on false cleavers (assay: Test Example 5: herbicidal effect by foliage application, plastic box (Table 20, symbol Q)). Details: foliage application, 320 g/ha, three weeks after application.
Format: in vivo, false cleavers (Galium spurium)
In short: as §3

| SMILES | Q: false cleavers, herbicidal effect grade |
| --- | --- |
| COc1cc(F)ccc1-c1sc2cc(F)ccc2c1-c1c(O)c(C)nn(C)c1=O [3-009] | 5 (Herbicidal rate of 90% or more (almost completely withered)) |
| Cc1nn(C)c(=O)c(-c2c(-c3ccc4c(c3)OCCO4)sc3cc(F)ccc23)c1O [3-013] | 5 (Herbicidal rate of 90% or more (almost completely withered)) |
| CCOc1cc(F)ccc1-c1sc2cc(F)ccc2c1-c1c(O)c(C)nn(C)c1=O [3-011] | 5 (Herbicidal rate of 90% or more (almost completely withered)) |
